Each block holds one molecule with its values, some of them ahead of it.
Experiments:
TrxR1 [1] = target: T1, TrxR1 (Homo sapiens, UniProt Q16881); conditions: cited from earlier work
T1 sequence (Q16881 1-499 isoform Q16881-5): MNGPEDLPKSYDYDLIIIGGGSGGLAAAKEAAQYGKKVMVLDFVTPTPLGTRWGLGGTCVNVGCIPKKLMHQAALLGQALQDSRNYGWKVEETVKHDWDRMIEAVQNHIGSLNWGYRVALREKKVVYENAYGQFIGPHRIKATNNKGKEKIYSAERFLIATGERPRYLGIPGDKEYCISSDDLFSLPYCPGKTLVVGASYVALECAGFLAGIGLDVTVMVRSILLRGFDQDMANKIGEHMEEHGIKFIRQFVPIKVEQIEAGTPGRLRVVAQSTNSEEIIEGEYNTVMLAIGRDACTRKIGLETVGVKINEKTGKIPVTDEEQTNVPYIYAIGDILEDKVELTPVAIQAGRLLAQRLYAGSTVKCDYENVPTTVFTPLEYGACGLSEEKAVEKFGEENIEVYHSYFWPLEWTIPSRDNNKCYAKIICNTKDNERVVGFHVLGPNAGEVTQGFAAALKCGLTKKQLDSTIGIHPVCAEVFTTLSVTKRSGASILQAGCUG

TrxR1 [2] = target: T1, TrxR1; assay: Cellular quantitative HTS; type: cell-based; conditions: for activity in the cellular RX1 screen: hits classed up to 20 μM; for pIC50 comparison between the two vinylsulfones: despite ca. 1.1 LogP difference
TrxR = target: T2, TrxR (Homo sapiens, UniProt Q16881); assay: Cellular probe signal after chemical inhibition of TrxR; type: cell-based
T2 sequence (Q16881 1-499 isoform Q16881-5): T1 sequence (Q16881 1-499 isoform Q16881-5)

SMILES: C=CCN1CCc2c(cc(O)c(O)c2Cl)C(c2ccccc2)C1 (centres unmarked) [chloro-APB]
activity in the enzymatic (cell-free) TrxR screen (TrxR1 [1]): inactivity
activity in the cellular RX1 screen (TrxR1 [2]): active

SMILES: Oc1ccc2ccccc2c1SSc1c(O)ccc2ccccc12 [IPA-3]
activity in the enzymatic (cell-free) TrxR screen (TrxR1 [1]): inactivity
activity in the cellular RX1 screen (TrxR1 [2]): active

pIC50 comparison between the two vinylsulfones (TrxR1 [2]): no change
SMILES: Cc1ccc(S(=O)(=O)/C=C/C#N)cc1 [BAY 11–7082]

SMILES: CN(N=O)c1cc(O)ccc1O [Dephostatin]
potency loss in cells (ratio of cell-free to cellular potency) (TrxR1 [2]; cellular RX1 qHTS versus cell-free qHTS of ref 67): > 10 fold

SMILES: COC[C@H]1OC(=O)c2coc3c2[C@@]1(C)C1=C(C3=O)[C@@H]2CCC(=O)[C@@]2(C)C[C@H]1OC(C)=O [wortmannin]
activity in the enzymatic (cell-free) TrxR screen (TrxR1 [1]): activity
activity in the cellular RX1 screen (TrxR1 [2]): inactive

apparent potency relative to the reference inhibitor TRi-1 (TrxR1 [2]): ≤ 3%
SMILES: O=c1c(O)c(-c2cc(O)c(O)c(O)c2)oc2cc(O)cc(O)c12 [myricetin]

SMILES: OC[C@H]1O[C@H]([S-])[C@H](O)[C@@H](O)[C@@H]1O.[Au+] [aurothioglucose]
pIC50 (potency) lower than its ester prodrug auranofin (TrxR1 [2]): 10 fold

SMILES: COc1ccc([N+](=O)[O-])c(S(=O)(=O)c2ccc(Cl)cc2)n1 [TRi-1]
effect of TrxR inhibitor on cellular RX1 signal (TrxR): efficiently suppressed

apparent potency relative to the reference inhibitor TRi-1 (TrxR1 [2]): ≤ 3%
SMILES: O=C1CSC(=S)N1 [rhodanine]

SMILES: CC(C)(C)c1ccc(S(=O)(=O)/C=C/C#N)cc1 [BAY 11–7085]
pIC50 comparison between the two vinylsulfones (TrxR1 [2]): no change

SMILES: CC(=O)c1c(O)c(C)c(O)c(Cc2c(O)c3c(c(C(=O)/C=C/c4ccccc4)c2O)OC(C)(C)C=C3)c1O [rottlerin]
apparent potency relative to the reference inhibitor TRi-1 (TrxR1 [2]): ≤ 3%
